# Experimental data from US7153844B2, “Estrogen-linked platinum (II) complexes as anticancer agents” (priority 2002, dated 2006).
# Assays:
# Assay type in all cases: cell-based, human
# [1] = tested on: HEC-1A; assay: Cell proliferation with the MTT assay; conditions: read-out: IC50 (Inhibitory concentration 50%), uterus, ER−, NR = IC50 not reach at the concentrations tested
# Description: (§1) Cell Proliferation with the MTT Assay (Uterine, Ovarian and Breast Cancer Cell Lines)
# (§2) Several human uterine, ovarian and breast cancer cell lines were used to evaluate the antitumor activities of the new estrogen-linked platinum (II) complexes. The cytotoxicity of the platinum (II) complexes was done along with cisplatin as the control on both ER+ and ER— human uterine, ovarian and breast carcinomas. Cell proliferation was done with the MTT assay as described by J. Carmichael et al. (Cancer Res. 47, 943–946 (1987) see also C. H. J. Ford et al., Cancer Chemother. Pharmacol. 24, 295–301 (1986)). The MTT assay is based on the ability of viable cells to reduce a soluble colorless tetrazolium salt, 3-(4,5-dimethylthiazol-2-yl)-2,5-diphenyltetrazolium bromide (MTT), into an insoluble blue formazan derivative.
# [2] = tested on: MCF-7; assay: Cell proliferation with the MTT assay; conditions: read-out: IC50 (Inhibitory concentration 50%), MCF-7, breast, ER+, NR = IC50 not reach at the concentrations tested
# Description: as §1, §2
# [3] = tested on: MDA-MB-231; assay: Cell proliferation with the MTT assay; conditions: read-out: IC50 (Inhibitory concentration 50%), MDA-MB-231, breast, ER−, NR = IC50 not reach at the concentrations tested
# Description: as §1, §2
# [4] = tested on: Ishikawa; assay: Cell proliferation with the MTT assay; conditions: read-out: IC50 (Inhibitory concentration 50%), uterus, ER+, NR = IC50 not reach at the concentrations tested
# Description: as §1, §2
# [5] = tested on: HeLa; assay: Cell proliferation with the MTT assay; conditions: read-out: IC50 (Inhibitory concentration 50%), uterus, ER−, NR = IC50 not reach at the concentrations tested
# Description: as §1, §2
# [6] = tested on: RL-95-2; assay: Cell proliferation with the MTT assay; conditions: read-out: IC50 (Inhibitory concentration 50%), RL-95-2, uterus, ER+, NR = IC50 not reach at the concentrations tested
# Description: as §1, §2
# [7] = tested on: A2780cp; assay: Cell proliferation with the MTT assay; conditions: read-out: IC50 (Inhibitory concentration 50%), ovary, ER−, NR = IC50 not reach at the concentrations tested
# Description: as §1, §2
# [8] = tested on: ZR-75-1; assay: Cell proliferation with the MTT assay; conditions: read-out: IC50 (Inhibitory concentration 50%), ZR-75-1, breast, ER+, NR = IC50 not reach at the concentrations tested
# Description: as §1, §2
# [9] = tested on: A2780wt; assay: Cell proliferation with the MTT assay; conditions: read-out: IC50 (Inhibitory concentration 50%), ovary, ER−, NR = IC50 not reach at the concentrations tested
# Description: as §1, §2
# [10] = tested on: KLE; assay: Cell proliferation with the MTT assay; conditions: read-out: IC50 (Inhibitory concentration 50%), uterus, ER−, NR = IC50 not reach at the concentrations tested
# Description: as §1, §2
# [11] = tested on: SKOV-3; assay: Cell proliferation with the MTT assay; conditions: read-out: IC50 (Inhibitory concentration 50%), SKOV-3, ovary, ER+, NR = IC50 not reach at the concentrations tested
# Description: as §1, §2
# [12] = tested on: OVCAR-3; assay: Cell proliferation with the MTT assay; conditions: read-out: IC50 (Inhibitory concentration 50%), OVCAR-3, ovary, ER+, NR = IC50 not reach at the concentrations tested
# Description: as §1, §2
# [13] = tested on: HS578T; assay: Cell proliferation with the MTT assay; conditions: read-out: IC50 (Inhibitory concentration 50%), breast, ER−, NR = IC50 not reach at the concentrations tested
# Description: as §1, §2
# [14] = tested on: MCF-7; assay: Cell proliferation with the SRB assay; conditions: read-out: IC50 (Inhibitory concentration 50%), MCF-7 (ER+) breast carcinoma
# Description: (§3) Cell Proliferation with the SRB Assay (Breast Cancer Cell Lines)
# (§4) Two human breast tumor cell lines were used to evaluate the antitumor activities of the new estrogen-linked platinum (II) complexes. […] Cell proliferation was done with the sulforhodamine B (SRB) assay as described by Alley, M. C. et al. (Cancer Research. no 48, 589–601 (1988)) and Boyd, M. R. & Paull, K. D. (Drug Development Research. 34, 91–109, (1995)).
# [15] = tested on: MDA-MB-231; assay: Cell proliferation with the SRB assay; conditions: read-out: IC50 (Inhibitory concentration 50%), MDA-MB-231 (ER−) breast carcinoma
# Description: as §3, §4
Molecule,IC50 [1] [µM],IC50 [2] [µM],IC50 [3] [µM],IC50 [4] [µM],IC50 [5] [µM],IC50 [6] [µM],IC50 [7] [µM],IC50 [8] [µM],IC50 [9] [µM],IC50 [10] [µM],IC50 [11] [µM],IC50 [12] [µM],IC50 [13] [µM],IC50 [14] [µM],IC50 [15] [µM]
"16β-hydroxymethyl-16α-[8′-(2-pyridin-2-yl-ethylamino)-3′,6′-dioxaoctyl]-1,3,5(10)-estratrien-3,17β-diol dichloroplatinum (II) [derivative 23]",20.4,12.7,18.8,2.5,13.8,6.25,16,14.6,7.9,17.5,32.5,33.8,16.2,–,–
"N.N.[Cl][Pt][Cl] [Cisplatin, cis-diamminedichloroplatinum (II), reference compound]",20.8 ± 4.7,–,–,3.7 ± 0.9,–,14.1 ± 0.5,–,–,–,24.3 ± 6.3,–,–,–,16.1,12.8
"C[C@]12CC[C@@H]3c4ccc(O)cc4CC[C@H]3[C@@H]1C[C@H](CCCCCCCCCCCNCc1ccccn1)[C@@H]2O.[Cl][Pt][Cl] [derivative 12 (∘ = 1), 16β-[11′-(2″-picolylamino)undecanyl]-1,3,5(10)-estratrien-3,17β-diol dichloroplatinate (II)]",13,–,–,28,–,7,–,–,–,6,–,–,–,5.9,4.1
"C[C@]12CCC3c4ccc(O)cc4CCC3C1C[C@H](CCCCCCCCCCCNCCc1ccccn1)[C@@H]2O.[Cl][Pt][Cl] (stereo partly drawn) [derivative 12 (∘ = 2), 16β-[11′-(2″-pyridylethylamino)undecanyl]-1,3,5(10)-estratrien-3,17β-diol dichloroplatinate (II)]",3.75,–,–,0.25,–,1,–,–,–,1.75,–,–,–,< 0.78,< 0.78
"C[C@]12CCC3c4ccc(O)cc4CCC3C1C[C@@](CO)(CCCCNCc1ccccn1)[C@@H]2O.[Cl][Pt][Cl] (stereo partly drawn) [derivative 14 (∘ = 1, p = 2), 16β-hydroxymethyl-16α-[4-(1-pyridin-2-yl-methylamino)-butyl]-1,3,5(10)-estratrien-3,17β-diol dichloroplatinum (II)]",> 40,> 40,> 40,36,> 40,40,> 40,> 40,33.7,> 40,> 40,> 40,> 40,–,–
"C[C@]12CCC3c4ccc(O)cc4CCC3C1C[C@@](CO)(CCCCCCNCc1ccccn1)[C@@H]2O.[Cl][Pt][Cl] (stereo partly drawn) [derivative 14 (∘ = 1, p = 4), 16β-hydroxymethyl-16α-[6-(1-pyridin-2-yl-methylamino)-hexyl]-1,3,5(10)-estratrien-3,17β-diol dichloroplatinum (II)]",19.5,> 40,> 40,> 40,36.2,16,> 40,> 40,23.5,36.2,> 40,> 40,36.2,–,–
"C[C@]12CCC3c4ccc(O)cc4CCC3C1C[C@@](CO)(CCCCCCCCNCc1ccccn1)[C@@H]2O.[Cl][Pt][Cl] (stereo partly drawn) [derivative 14 (∘ = 1, p = 6), 16β-hydroxymethyl-16α-[8-(1-pyridin-2-yl-methylamino)-octyl]-1,3,5(10)-estratrien-3,17β-diol dichloroplatinum (II)]",9.2,20,40,19.5,34.4,7.8,11,11.2,6.3,19.5,35,18.8,17.5,–,–
"C[C@]12CCC3c4ccc(O)cc4CCC3C1C[C@@](CO)(CCCCCCCCCCNCc1ccccn1)[C@@H]2O.[Cl][Pt][Cl] (stereo partly drawn) [derivative 14 (∘ = 1, p = 8), 16β-hydroxymethyl-16α-[10-(1-pyridin-2-yl-methylamino)-decyl]-1,3,5(10)-estratrien-3,17β-diol dichloroplatinum (II)]",15.6,17.7,15.3,> 40,32.2,9.5,16.6,27.6,10,9.5,> 40,40,34.9,–,–
"C[C@]12CCC3c4ccc(O)cc4CCC3C1C[C@@](CO)(CCCCNCCc1ccccn1)[C@@H]2O.[Cl][Pt][Cl] (stereo partly drawn) [derivative 14 (∘ = 2, p = 2), 16β-hydroxymethyl-16α-[4-(2-pyridin-2-yl-ethylamino)-butyl]-1,3,5(10)-estratrien-3,17β-diol dichloroplatinum (II)]",26.3,28.5,> 40,16,34.5,10,30.5,26.3,19.5,> 40,35.6,31.2,33,–,–
"C[C@]12CCC3c4ccc(O)cc4CCC3C1C[C@@](CO)(CCCCCCNCCc1ccccn1)[C@@H]2O.[Cl][Pt][Cl] (stereo partly drawn) [derivative 14 (∘ = 2, p = 4), 16β-hydroxymethyl-16α-[6-(2-pyridin-2-yl-ethylamino)-hexyl]-1,3,5(10)-estratrien-3,17β-diol dichloroplatinum (II)]",6.4,7,> 40,20,8.9,6.4,7,11.4,5,8.9,12.5,12.5,7.25,–,–
"C[C@]12CCC3c4ccc(O)cc4CCC3C1C[C@@](CO)(CCCCCCCCNCCc1ccccn1)[C@@H]2O.[Cl][Pt][Cl] (stereo partly drawn) [derivative 14 (∘ = 2, p = 6), 16β-hydroxymethyl-16α-[8′-(2-pyridin-2-yl-ethylamino)-octyl]-1,3,5(10)-estratrien-3,17β-diol dichloroplatinum (II)]",2.1,6.4,10.5,8,4.6,0.1,3.6,4.6,3.3,2.7,4.8,5,4.3,–,–
"C[C@]12CCC3c4ccc(O)cc4CCC3C1C[C@@](CO)(CCCCCCCCCCNCCc1ccccn1)[C@@H]2O.[Cl][Pt][Cl] (stereo partly drawn) [derivative 14 (∘ = 2, p = 8), 16β-hydroxymethyl-16α-[10-(2-pyridin-2-yl-ethylamino)-decyl]-1,3,5(10)-estratrien-3,17β-diol dichloroplatinum (II)]",2.4,4,4,2.2,6.8,3.1,2,2.5,1.65,3.7,5.8,9.5,3.3,–,–
